According to patent publication US6949522B2, “β-2′- or 3′-halonucleosides” (Pharmasset, Inc., priority 2001, dated 2005):
pEC50: −log10 of the molar value. Where two headings read alike, the source gives them in different places.

Columns and labels:
HIV-1LAI [1] = assay: HIV assay in human PBM cells (RT activity of supernatant); assay type: cell-based; settings: 5 days, read-out: Anti-HIV-1 Activity (EC50)
Description: Human peripheral blood mononuclear (PBM) cells (obtained from Atlanta Red Cross) were isolated by Ficoll-Hypaque discontinuous gradient centrifugation from healthy seronegative donors. Cells were stimulated with phytohemagglutinin A (Difco, Sparks, Md.) for 2-3 days prior to use. HIV-1LAI obtained from the Centers for Disease Control and Prevention (Atlanta, Ga.) was used as the standard reference virus for the antiviral assays. The molecular infetious clones HIV-1xxBru and HIV-1M184Vpin were obtained from Dr. John Mellors (University of Pittsburgh). Infections were done in bulk for one hour, either with 100 TCID50/1×10^7 cells for a flask (T25) assay or with 200 TCID50/6×10^5 cells/well for a 24 well plate assay. Cells were added to a plate or flask containing a ten-fold serial dilution of the test compound. Assay medium was RPMI-1640 supplemented with heat inactivated 16% fetal bovine serum, 1.6 mM L-glutamine, 80 IU/ml penicillin, 80 μg/ml streptomycin, 0.0008% DEAE-Dextran, 0.045% sodium bicarbonate, and 26 IU/ml recombinant interleukin-2 (Chiron Corp, Emeryville, Calif.). AZT was used as a positive control for the assay. Untreated and uninfected PBM cells were grown in parallel at equivalent cell concentrations as controls. The cell cultures were maintained in a humidified 5% CO2-air at 37° C. for 5 days and supernatants were collected for reverse transcriptase (RT) activity.
Supernatants were centrifuged at 12,000 rpm for 2 hours to pellet the virus. The pellet was solubilized with vortexing in 100 μl virus solubilization buffer (VSB) containing 0.5% Triton X-100, 0.8 M NaCl, 0.5 mM phenylmethylsulfonyl fluoride, 20% glycerol, and 0.05 M Tris, pH 7.8. Ten μL of each sample were added to 75 μL RT reaction mixture (0.06 M Tris, pH 7.8, 0.012 M MgCl2, 0.006 M dithiothreitol, 0.006 mg/ml poly (rA)n, oligo (dT)12-18, 96 μg/ml dATP, and 1 μM of 0.08 mCi/ml ^3H-thymidine triphosphate (Moravek Biochemicals, Brea, Calif.) and incubated at 37° C. for 2 hours. The reaction was stopped by the addition of 100 μL 10% trichloroacetic acid containing 0.05% sodium pyrophosphate. The acid insoluble product was harvested onto filter paper using a Packard Harvester (Meriden, Conn.), and the RT activity was read on a Packard Direct Beta Counter (Meriden, Conn.). The RT results were expressed in counts per minute (CPM) per milliliter.

in vitro = assay type: cell-based, human; settings: human
Procedure, shortened: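 Cytotoxicity measured in uninfected PHA-stimulated human PBM cells (Ficoll-Hypaque-isolated from HIV-1/HBV-seronegative donors), CEM T-lymphoblastoid and Vero cells exposed to ten-fold serial drug dilutions. Viability read by MTT dye reduction, overnight dye incubation, absorbance at 570 nm.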

β-actin gene = assay type: cell-based, human; settings: human, 7 days, 10 μM
Method: Low passage number HepG2 cells, obtained from American Tissue Culture Collection (ATCC, Manassas, Va.) were seeded at 5,000 cells/well in collagen-coated 96-well plates. Test compounds were added to the media to obtain a final concentration of 10 μM. On culture day 7, cellular nucleic acids were prepared by using commercially available columns (RNeasy 96 kit, Qiagen). […] The mitochondrial cytochrome C oxidase subunit II (COXII) gene and the β-actin or rRNA gene were amplified from 5 μL with a multiplex Q-PCR protocol using the suitable primers and probes for both target and reference (designed using the Primer Express software, Applied Biosystems); • for COXII. • sense primer 5′-[…]-3′ (Sequence 7); • probe 5′-TET-[…]-TAMRA-3′ (Sequence 8); and • antisense probe 5′-[…]-3′ (Sequence 9); • for exon 3 of β-actin (GenBank E01094): • sense primer 5′-[…]-3′ (Sequence 10); • probe 5′-6FAM-[…]-TAMRA-3′ (Sequnece 11); and • antisense probe 5′-[…]-3′ (Sequence 12).
The rRNA gene primers and probes were purchased from Applied Biosystems. Standard curves using 1-log diluted total HepG2 DNA were linear over more than 5 logs. In addition, efficiencies of target (COXII DNA) and reference (β-actin DNA or rRNA) amplification were approximately equal, because the slope of the ΔCt line (Ct β-actin minus Ct mitochondrial) was less than 0.1 (not shown). Since equal amplification efficiencies were obtained for both genes, the comparative cycle threshold (Ct) method was used to investigate potential inhibition of the mitochondrial DNA polymerase γ. The comparative Ct method uses arithmetic formulas in which the amount of target (COXII gene) is normalized to an endogenous reference (β-actin gene or rRNA gene) and is relative to a calibrator (no drug control at day 7). The arithmetic formula for this approach is given by 2-ΔΔCt (User bulletin # 2, Applied Biosystems).
In order to study the consequences of possible inhibitory effects of these compounds on host DNA polymerases, nuclear and rnitochondrial DNA levels were quantified and compared to no-treatment controls. Cells were incubated for 7 days with 10 μM of each compound, followed by total nucleic acid extractions and multiplex Q-PCR of the rRNA gene and the mitochondrial COXII gene. Nucleic acids from cells exposed to the control compounds were also amplified in multiplex for mitDNA and the β-actin gene. The results are presented in Table 4 using the comparative Ct method.

HBV = HBV Q-PCR in the HepG2.2.15 cell system; assay type: cell-based, hepatitis B virus; settings: 10 μM, HepG2.2.15 system
HIV-1LAI [2] = settings: human PBM cells; reported in Org. Lett. 2002; read-out: anti-HIV activity EC50; cited from earlier work

**Q.** What does the source list for `Cc1cn([C@H]2C[C@H](N=[N+]=[N-])[C@@H](CO)O2)c(=O)[nH]c1=O` [AZT, 3′-azido-3′-deoxythymidine, reference compound]?
**A.** pEC50 (HIV-1LAI [1]; Human immunodeficiency virus 1, PBMC, 120 h): 8.40; IC50 at 5 days (in vitro): > 100000 nM; Average ΔCt ± SD β-actin DNA (β-actin gene): 0.10 ± 0.38

**Q.** Which “maximal reduction of HBV DNA” value (HBV) does the source give for `Nc1ccn([C@@H]2CS[C@H](CO)O2)c(=O)n1` [Compound 3TC, (−)-β-2′,3′-dideoxy-3′-thiacytidine, reference compound] here?
**A.** Its value is 0.6 logs.

**Q.** What about the “Average ΔCt ± SD β-actin DNA” value (β-actin gene) of the same compound?
**A.** Its value is 0.11 ± 0.23.

**Q.** With `Nc1ccn([C@@H]2S[C@H](CO)C=C2F)c(=O)n1` [Compound D-17, (−)-1-[(1S,4R)-2,3-dideoxy-2,3-didehydro-2-fluoro4-thio-β-D-ribofuranosyl]-cytosine] as the compound, how does the pEC50 (HIV-1LAI [1]) read?
**A.** The pEC50 was 5.89.

**Q.** With `Nc1nc(=O)n([C@@H]2S[C@H](CO)C=C2F)cc1F` [Compound D-18, (−)-1-[(1S,4R)-2,3-dideoxy-2,3-didehydro-2-fluoro-4-thio-β-D-ribofuranosyl]-5-fluorocytosine] as the compound, how does the pEC50 (HIV-1LAI [1]) read?
**A.** Its pEC50 is 4.94.

**Q.** With `Nc1ccn([C@H]2S[C@@H](CO)C=C2F)c(=O)n1` [Compound L-17, (+)-1-[(1S,4R)-2,3-dideoxy-2,3-didehydro-2-fluoro-4-thio-β-L-ribofuranosyl]-cytosine] as the compound, how does the pEC50 (HIV-1LAI [2]) read?
**A.** The pEC50 was 6.92.

**Q.** With `Nc1nc(=O)n([C@H]2S[C@@H](CO)C=C2F)cc1F` [Compound L-18, (+)-1-[(1S,4R)-2,3-dideoxy-2,3-didehydro-2-fluoro-4-thio-β-L-ribofuranosyl]-5-fluoro-cytosine] as the compound, how does the pEC50 (HIV-1LAI [1]) read?
**A.** Its pEC50 is 6.82.
